Entries after “also recorded” stand apart in the source; their conditions may differ.

The test system of one data set is RDEB SCC keratinocytes. Nature of the data set: Cell death of RDEB SCC keratinocytes after 48 hours exposure, crystal violet staining / phase contrast. The class given is cell-based. The method, then:
(§1) Panel A. Cells were seeded at high density and exposed to Rigosertib or vehicle control for 48 hours after which cells were fixed and stained with crystal violet. Panel B. Phase contrast images of unfixed cells in culture after given treatment of either control (left) or Rigosertib (1 μM, right).

The subject of data set [1] is normal primary keratinocytes. Nature of the data set: Effect on normal primary keratinocytes after 48 hours exposure, crystal violet staining / phase contrast. Type of data set: cell-based. Conditions: FIG. 1. The method, then: as §1
Another data set deals with SCC RDEB16 keratinocytes. Nature of the data set: Tumor xenograft of SCC RDEB16 keratinocytes, tumor volume by calipers. The class given is in vivo, Balb/c SCID mice. Particulars: subcutaneous inoculation; dosing after tumors reached 100 mm^3, administered 6 times; harvested day 35; FIG. 2. The method, then:
SCC RDEB16 keratinocytes were inoculated subcutaneously to Balb/c SCID mice. After tumors reached 100 mm^3, vehicle control, Rigosertib or Compound 1 (ATP-competitive inhibitor) were administered 6 times and tumor volume was measured with calipers. Tumors were harvested and photographed at day 35.

In data set [2] the test system is RDEB-associated locally advanced/metastatic squamous cell carcinoma (SCC). Nature of the data set: Phase 2 open-label single arm clinical study, tumor response (RECIST, MRI, clinical exam, histology). Type of data set: in vivo, patients.
Protocol: The study had two primary endpoints. […] The second primary endpoint was to evaluate the safety and tolerability of rigosertib in the population. Secondary study endpoints included quality of life and a biomarker analysis performed on archival tissue from all patients. Patients were dosed for up to one year, with trial duration anticipated to be approximately two-and-a-half years.
Intravenous dosing: For continuous IV infusion as Rigosertib, sodium salt concentrate, 75 mg/mL, was formulated to contain 75 mg of Rigosertib sodium salt per mL (equivalent to 75 mg of Rigosertib sodium per mL) as a sterile solution in polyethylene glycol 400 (PEG 400) containing a small amount of sodium hydroxide for pH adjustment. Rigosertib.Na 75 mg/mL was packaged in single-use glass vials with Teflon-lined rubber stoppers containing 24 mL of drug product (1800 mg). Just prior to dosing, the Rigosertib concentrate (i.e. 1 glass vial, 24 mL) was diluted to a final volume of 500 ml in 0.9% sodium chloride for injection.
Efficacy Assessments: Overall response rate (ORR) was defined as the proportion of patients who achieved either a CR or a PR. Responses of complete remission (CR), partial remission (PR), mCR, SD, failure, and PD were determined by RECIST criteria. The number and percent of patients with CR, PR, mCR, SD, Failure or PD were summarized.
Response per RECIST criteria: Efficacy assessments included an initial tumor assessment at week 12 (±3 days) after first dose. Further tumor assessments were completed every 12 weeks (±3 days). Study evaluations were performed according to RECIST 1.1 criteria. High resolution CT with oral or IV contrast or contrast-enhanced MRI were used as imaging modalities for assessing radiographic tumor response. Screening/Baseline assessments were within 4 weeks of first dose of study drug. Brain MRI was used as an imaging method for evaluating CNS metastasis, and an assessment was required during screening/baseline and End of Therapy or as clinically indicated.
Target lesions: When more than one measurable lesion was present at baseline, all lesions up to a maximum of 5 lesions total (and a maximum of two lesions per site), representative of all involved sites, were investigated as target lesions and are recorded and measured at baseline. Target lesions were selected on the basis of size (lesions with the longest diameter) and were representative of all involved sites. A sum of the diameters (longest for non-nodal lesions, short axis for nodal lesions) for all target lesions were calculated and reported as the baseline sum diameters. If lymph nodes were included in the sum, only the short axis was added into the sum. The baseline sum diameters were used as reference to characterize any objective tumor regression in the measurable dimension of the disease. […]
Data set [3] in a line: Phase 2 open-label single arm clinical study, safety and tolerability. Type of data set: in vivo, patients. Particulars: single RDEB patient, CIV infusions. The method, then: A phase 2, open-label single arm was conducted. The study was designed to assess the efficacy and safety of Rigosertib in patients with recessive dystrophic epidermolysis bullosa (RDEB)-associated locally advanced/metastatic squamous cell carcinoma (SCC).
In addition to the assessment of safety and tolerability, efficacy was measured by the overall response rate as assessed by RECIST. Patients were treated until RECIST progression criteria were met (i.e. 20% increase in tumor diameter or appearance of new malignant lesions) for 12 consecutive months or until an unacceptable toxicity or intolerance, or until remission.
The study had two primary endpoints. The first was to determine the anti-tumor activity of rigosertib in RDEB patients with advanced SCC who had failed prior standard of care through the overall response rate (ORR), defined as the proportion of patients who achieved either a complete response (CR) or a partial response (PR). The second primary endpoint was to evaluate the safety and tolerability of rigosertib in the population. Secondary study endpoints included quality of life and a biomarker analysis performed on archival tissue from all patients. Patients were dosed for up to one year, with trial duration anticipated to be approximately two-and-a-half years. […]

The mark [4] stands for this setting: one RDEB patient, intravenous rigosertib, 12 week MRI and clinic visit.

On to `COc1cc(OC)c(/C=C/S(=O)(=O)Cc2ccc(OC)c(NCC(=O)O)c2)c(OC)c1` [Rigosertib, (E)-2-(5-((2,4,6-trimethoxystyrylsulfonyl)methyl)-2-methoxyphenylamino)acetic acid], for which the “cell death in RDEB SCC keratinocytes” value in the data set on RDEB SCC keratinocytes (48 hours exposure, Rigosertib 1 μM in phase contrast images, FIG. 1) was “induces cell death”. Besides, the “specificity / therapeutic window separating tumor and normal cells” value in the data set with RDEB SCC keratinocytes (preclinical models, RDEB SCC keratinocytes vs normal cells) was “largest therapeutic window separating tumor and normal cells”. Besides, in data set [1], the “effect on normal primary keratinocytes” value is “without affecting normal primary keratinocytes”. In addition, the “tumor growth (tumor volume) of RDEB SCC keratinocytes in vivo” value with SCC RDEB16 keratinocytes is “inhibits RDEB SCC keratinocyte grown in vivo”. Further, in data set [2] (RDEB patient, 17 treatment cycles), the “metastatic disease after trial completion” value is on record as “without signs of metastatic disease”. Further, the “remission of target lesions after trial completion” value in data set [2] (RDEB patient, 72 hr CIV infusions 1800 mg/24 h days 1-3, 17 treatment cycles) was “sustained clinical and histological remission of all target lesions”. For the same molecule, the “histology of biopsied target lesions (left hand, right elbow)” value in data set [2] (V25 (day 169-175)) was “no histological signs of malignancy”. Moreover, in data set [2] (setting [4]), the “resolution of squamous cell target lesions (left hand), clinical exam and MRI” value was “complete resolution of two of three squamous cell target lesions”; the “third target lesion (right elbow)” value is “reduction in the third target lesion”. Further, in data set [3], the observed adverse effects result is reported as “CTCAE grade II irritative cystitis; also recorded: alopecia; also recorded: recurrent episode of bacteriaemia; also recorded: nausea; also recorded: increased lesional pain; also recorded: amenorrhea”; the safety and tolerability result is on record as “favorable”.

For the origin of these results see patent publication US20240299326A1, “METHODS AND COMPOSITIONS FOR TREATING CANCER” (Onconova Therapeutics, Inc., priority 2021, published 2024).
